A value given as a limit tells only on which side of the number the result lay.

One assay relates to HBV. The assay is described as follows: HepAD38 antiviral assay: reduction of viral product accumulation (virion DNA by qPCR, HBsAg or HBeAg by ELISA). The following applies: HepAD38 cells, five days after compound addition; concentration reducing viral product accumulation by 50% relative to no drug controls; read-out: HepAD38 EC50. The format is cell-based, hepatitis B virus. The method, boiled down:
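EC50 values represent 50% reduction of viral product accumulation in lysates or supernatants relative to untreated controls, with virion DNA read by qPCR and HBsAg/HBeAg by ELISA. Measurements followed 5 days of treatment, or 8 days with compound renewed on d2 and d5. Cells were tetracycline-depleted HepAD38 at 35,000/well, dosed with a 1:200 dilution of DMSO stocks.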
In general terms: Quantitative PCR measures a nucleic acid by following its amplification.
Take `COC(=O)C1=CON(Cc2ccccc2)C1[C@]1(O)CC2CC[C@@H](C1)[C@H]2S(=O)(=O)c1cc(C(=O)Nc2cc(F)c(F)c(F)c2)ccc1Cl` (stereo partly drawn) [Example 216]: the EC50 was over 400 nM.

The assay is the same for the next values; noted with them: Hepatitis B virus, HePAD38, 120 h, HepAD38 cells, five days after compound addition; concentration reducing viral product accumulation by 50% relative to no drug controls; read-out: HepAD38 EC50.
In the case of `O=C(Nc1cc(F)c(F)c(F)c1)c1ccc(Cl)c(S(=O)(=O)[C@H]2C3CC[C@H]2C[C@]2(CO2)C3)c1` [Example 139], the EC50 was under 100 nM.
Same read-out and setting: to `Cc1c(NC(=O)c2ccc(Cl)c(S(=O)(=O)[C@]3(C)CC[C@H](O)CC3)c2)cc(F)c(F)c1F` [Example 18] belongs 100 to 400 nM; to `CCOC(=O)C(CC1CCOCC1)S(=O)(=O)c1cc(C(=O)Nc2cc(F)c(F)c(F)c2)ccc1Cl` (stereo not drawn) [Example 116], over 400 nM.
With `C=C1CCC(S(=O)(=O)c2cc(C(=O)Nc3cc(F)c(F)c(F)c3)ccc2Cl)CC1` [Example 104], the EC50 lay within 100 to 400 nM.
For the compound `CC(C)(C)OC(=O)N[C@@H](Cc1ccccc1)C(=O)NC[C@]1(O)C2CCC1C[C@@H](S(=O)(=O)c1cc(C(=O)Nc3cc(F)c(F)c(F)c3)ccc1Cl)C2` [Example 364], the EC50 was under 100 nM.
For the compound `O=C(Nc1cc(F)c(F)c(F)c1)c1ccc(Cl)c(S[C@H]2C3CC4C[C@H](C3)C[C@@H]2C4)c1` [Example 174], the EC50 was over 400 nM.
Same read-out and setting: the result for `O=C(Nc1cc(F)c(F)c(F)c1)c1ccc(Cl)c(S(=O)(=O)CCCCO[C@H]2C3CC[C@H]2C[C@](O)(CO)C3)c1` [Example 165] reads over 400 nM; that for `O=C(Nc1cc(F)c(F)c(F)c1)c1ccc(Cl)c(S(=O)(=O)[C@H]2CC3CCC(C2)[C@@H]3CO)c1` [Example 250], over 400 nM; that for `O=C(Nc1cc(F)c(F)c(F)c1)c1ccc(Cl)c(S(=O)(=O)[C@H]2C3CC[C@H]2C[C@](O)(/C=N/O)C3)c1` [Example 158], under 100 nM.
Same read-out and setting: the result for `COC(=O)C1=CON(Cc2ccccc2)C1[C@]1(O)CC2CC[C@@H](C1)[C@H]2S(=O)(=O)c1cc(C(=O)Nc2cc(F)c(F)c(F)c2)ccc1Cl` (stereo partly drawn) [Example 215] reads over 400 nM; that for `O=C(Nc1cc(F)c(F)c(F)c1)c1ccc(Cl)c(S(=O)(=O)[C@H]2C3CC[C@H]2C[C@]2(COS(=O)O2)C3)c1` (stereo partly drawn) [Example 263], under 100 nM; that for `O=C(Nc1cc(F)c(F)c(F)c1)c1ccc(Cl)c(S[C@H]2CC3CCC(C2)[C@@H]3O)c1` [Example 190], over 400 nM.
Turning to `CCOC(=O)/C=C/[C@]1(O)CC2CC[C@@H](C1)[C@H]2S(=O)(=O)c1cc(C(=O)Nc2cc(F)c(F)c(F)c2)ccc1Cl` [Example 222], the EC50 was over 400 nM.
`CCOC(=O)C(Cc1ccncc1)S(=O)(=O)c1cc(C(=O)Nc2cc(F)c(F)c(F)c2)ccc1Cl` (stereo not drawn) [Example 103]: the EC50 is over 400 nM.
The same measure, in the same setting: to `CC(C)(C)[Si](C)(C)O[C@H]1C2CCC1C[C@@H](S(=O)(=O)c1cc(C(=O)Nc3cc(F)c(F)c(F)c3)ccc1Cl)C2` [Example 195] belongs over 400 nM; to `O=C(Nc1cc(F)c(F)c(F)c1)c1ccc(Cl)c(S(=O)(=O)[C@H]2C3CC[C@H]2C[C@](O)(C#Cc2ccccn2)C3)c1` [Example 171], under 100 nM.
On the same count and under the same terms, the result for `O=C(Nc1cc(F)c(F)c(F)c1)c1ccc(Cl)c(S(=O)(=O)[C@H]2CC[C@H](O)CC2)n1` [Example 62] reads over 400 nM; that for `COC(=O)C1CON(Cc2ccccc2)C1C1=C[C@@H]2CCC(C1)[C@@H]2S(=O)(=O)c1cc(C(=O)Nc2cc(F)c(F)c(F)c2)ccc1Cl` (stereo partly drawn) [Example 214], 100 to 400 nM; that for `COc1ccc(CO/N=C/[C@]2(O)CC3CC[C@@H](C2)[C@H]3S(=O)(=O)c2cc(C(=O)Nc3cc(F)c(F)c(F)c3)ccc2Cl)cc1` [Example 233], under 100 nM.
As for `O=C(Nc1cc(F)c(F)c(F)c1)c1ccc(Cl)c(S(=O)(=O)Cc2ccccc2)c1` [Example 27], the EC50 is over 400 nM.
For the compound `C[C@]1(O)C(=O)O[C@H](CSc2cc(C(=O)Nc3cc(F)c(F)c(F)c3)ccc2Cl)[C@H]1O` [Example 97], the EC50 was over 400 nM.
The same measure, in the same setting: to `O=C(Nc1cc(F)c(F)c(F)c1)c1ccc(Cl)c(S(=O)(=O)C[C@@H]2C3CC[C@H]2C[C@@H](O)C3)c1` [Example 181] belongs under 100 nM; to `N[C@H]1CC[C@H](S(=O)(=O)c2cc(C(=O)Nc3cc(F)c(F)c(F)c3)ccc2Cl)CC1` [Example 72], over 400 nM; to `CC(C)(c1ccncc1)S(=O)(=O)c1cc(C(=O)Nc2cc(F)c(F)c(F)c2)ccc1Cl` [Example 121], over 400 nM.
Still for that read-out and setting: to `O=C(Nc1cc(F)c(F)c(-n2cccn2)c1)c1ccc(Cl)c(S(=O)(=O)[C@H]2C3CC[C@H]2C[C@](O)(Cn2cccn2)C3)c1` [Example 333] belongs over 400 nM; to `O=C(Nc1ccc(F)cc1)c1ccc(Cl)c(S(=O)(=O)[C@H]2CC[C@H](O)CC2)c1` [Example 66], over 400 nM.
With `O=C(Nc1cc(F)c(F)c(F)c1)c1ccc(Cl)c(SCc2cccnc2)c1` [Example 35], the EC50 was over 400 nM.
Still for that read-out and setting: to `O=C(Nc1cc(F)c(F)c(F)c1)c1ccc(Cl)c(S[C@H]2CC3CCC(C2)[C@H]3O)c1` [Example 191] belongs over 400 nM; to `O=C(Nc1cc(F)c(F)c(F)c1)c1ccc(Cl)c(S(=O)(=O)C[C@H]2OC[C@H](O)[C@@H]2O)c1` [Example 108], over 400 nM.
With `N#CC1CON(Cc2ccccc2)C1C1=C[C@@H]2CCC(C1)[C@@H]2S(=O)(=O)c1cc(C(=O)Nc2cc(F)c(F)c(F)c2)ccc1Cl` (stereo partly drawn) [Example 210], the EC50 was over 400 nM.
For the compound `COc1cccc(CO/N=C/[C@]2(O)CC3CC[C@@H](C2)[C@H]3S(=O)(=O)c2cc(C(=O)Nc3cc(F)c(F)c(F)c3)ccc2Cl)c1` [Example 237], the EC50 lay within 100 to 400 nM.
Still for that read-out and setting: to `O=C(Nc1cc(F)c(F)c(F)c1)c1ccc(Cl)c(S(=O)(=O)[C@H]2C3CC[C@H]2C[C@](O)(COCCN2CCOCC2)C3)c1` [Example 325] belongs under 100 nM; to `O=C(Nc1cc(F)c(F)c(F)c1)c1ccc(Cl)c(S(=O)(=O)c2ccccc2)c1` [Example 82], over 400 nM; to `CC1(C)O[C@@H]2[C@@H](CS(=O)(=O)c3cc(C(=O)Nc4cc(F)c(F)c(F)c4)ccc3Cl)OC(=O)[C@]2(C)O1` [Example 98], over 400 nM.
Take `COC(=O)[C@@H](NC[C@]1(O)C2CCC1C[C@@H](S(=O)(=O)c1cc(C(=O)Nc3cc(F)c(F)c(F)c3)ccc1Cl)C2)C(C)C` [Example 339]: the EC50 is over 400 nM.
On the same count and under the same terms, to `NC(=O)O[C@]1(c2cccnc2)C2CCC1C[C@H](S(=O)(=O)c1cc(C(=O)Nc3cc(F)c(F)c(F)c3)ccc1Cl)C2` [Example 353] belongs under 100 nM; to `O=C(Nc1cc(F)c(F)c(F)c1)c1ccc(Cl)c(S(=O)(=O)C[C@H]2C3CCC2C[C@H](O)C3)c1` [Example 194], under 100 nM.
On the same count and under the same terms, to `C[C@]1(O)CC[C@H](S(=O)(=O)c2cc(C(=O)Nc3cc(F)c(F)c(F)c3)ccc2Cl)CC1` [Example 23] belongs 100 to 400 nM; to `CS(=O)(=O)NC(=O)O[C@H]1CC[C@H](S(=O)(=O)c2cc(C(=O)Nc3cc(F)c(F)c(F)c3)ccc2Cl)CC1` [Example 53], over 400 nM.
Still for that read-out and setting: the result for `O=C(Nc1cc(F)c(F)c(F)c1)c1ccc(Cl)c(S(=O)(=O)C[C@H]2CC[C@H](O)CC2)c1` [Example 111] reads under 100 nM.
In the case of `O=C(Nc1cc(F)c(F)c(F)c1)c1ccc(Cl)c(S(=O)(=O)[C@H]2CC3CCC(C2)[C@]3(O)CN2CCOCC2)c1` [Example 336], the EC50 was under 100 nM.
Same read-out and setting: the result for `O=C(Nc1cc(F)c(F)c(F)c1)c1ccc(Cl)c(S(=O)(=O)CC2CCOCC2)c1` [Example 113] reads 100 to 400 nM.
For the compound `O=C(Nc1cc(F)c(F)c(F)c1)c1ccc(Cl)c(S(=O)(=O)C2CCCCC2)c1` [Example 12], the EC50 lay in the range of 100 to 400 nM.
In the case of `CC1(C)O[C@H]2[C@H](CO[C@@H]2CS(=O)(=O)c2cc(C(=O)Nc3cc(F)c(F)c(F)c3)ccc2Cl)O1` [Example 107], the concentration giving a half-maximal response (EC50) was over 400 nM.
As for `C[C@]1(O)CC[C@@H](S(=O)(=O)c2cc(C(=O)Nc3cc(F)c(F)c(F)c3)ccc2Cl)CC1` [Example 22], the EC50 was in the range of 100 to 400 nM.
As for `CS(=O)(=O)NC[C@@]1(O)CC2CC[C@@H](C1)[C@H]2S(=O)(=O)c1cc(C(=O)Nc2cc(F)c(F)c(F)c2)ccc1Cl` [Example 186], the EC50 fell in the range of 100 to 400 nM.
For `O=C(Nc1cc(F)c(F)c(F)c1)c1ccc(Cl)c(S(=O)(=O)[C@H]2C3CC[C@H]2C[C@@](O)(CO)C3)c1` [Example 164], the EC50 is under 100 nM.
For the compound `C=CCOC[C@]1(O)CC2CC[C@@H](C1)[C@H]2S(=O)(=O)c1cc(C(=O)Nc2cc(F)c(F)c(F)c2)ccc1Cl` [Example 270], the 50% effective concentration (EC50) was under 100 nM.
Still for that read-out and setting: to `O=C(Nc1cc(F)c(F)c(F)c1)c1ccc(Cl)c(S(=O)(=O)C[C@@H]2C[C@@H](O)[C@@H](O)C2)c1` [Example 102] belongs 100 to 400 nM; to `COc1cc(C(=O)Nc2cc(F)c(F)c(F)c2)ccc1Cl` [Example 14], over 400 nM; to `CC(O)CNC[C@]1(O)C2CCC1C[C@@H](S(=O)(=O)c1cc(C(=O)Nc3cc(F)c(F)c(F)c3)ccc1Cl)C2` (stereo partly drawn) [Example 342], under 100 nM.
Same read-out and setting: to `O=C(Nc1cc(F)c(F)c(F)c1)c1ccc(Cl)c(S(=O)(=O)C[C@@H]2C3CC[C@H]2C[C@H](O)C3)c1` [Example 193] belongs 100 to 400 nM; to `O=C(Nc1cc(F)c(F)c(F)c1)c1ccc(Cl)c(S(=O)(=O)[C@H]2C3CC[C@H]2C[C@](O)(COCC2CO2)C3)c1` (stereo partly drawn) [Example 328], under 100 nM.
With `CC(C)(O)[C@]1(O)CC2CC[C@@H](C1)[C@H]2S(=O)(=O)c1cc(C(=O)Nc2cc(F)c(F)c(F)c2)ccc1Cl` [Example 151], the half-maximal effective concentration (EC50) was under 100 nM.
Same read-out and setting: the result for `O=C(Nc1cc(F)c(F)c(F)c1)c1ccc(Cl)c(S(=O)(=O)[C@H]2CC3CCC(C2)[C@H]3CO)c1` [Example 249] reads 100 to 400 nM.

Still in this assay, the particulars now being: Hepatitis B virus, HePAD38, 120 h, read-out: HepAD38 EC50.
As for `CC(C)(C)[Si](C)(C)O[C@H]1C2CCC1C[C@@H](Sc1cc(C(=O)Nc3cc(F)c(F)c(F)c3)ccc1Cl)C2` [Example 189], the EC50 was 100 to 400 nM.

Usually EC50 stands for the concentration giving half of the maximal effect.

The record behind these values is patent US10538532B2, “Hepatitis B antiviral agents” (ENANTA PHARMACEUTICALS, INC., priority 2016, dated 2020).
